Results: PubChem BioAssay (NCI)
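GI50 = concentration required for 50% inhibition of growth. TGI marks complete inhibition of growth.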

Columns and labels:
Assay in all cases: NCI anticancer screen, dose series, 384-well format
SF-268 CNS = tested on: SF-268 CNS
MCF7 breast = tested on: MCF7 breast
PC-3 prostate = tested on: PC-3 prostate
ACHN renal = tested on: ACHN renal
HCC-2998 colon = tested on: HCC-2998 colon
MOLT-4 leukemia = tested on: MOLT-4 leukemia
A498 renal = tested on: A498 renal
RPMI-8226 leukemia = tested on: RPMI-8226 leukemia
SK-OV-3 ovarian = tested on: SK-OV-3 ovarian
HS 578T breast = tested on: HS 578T breast
HOP-92 NSCLC = tested on: HOP-92 NSCLC
HCT-116 colon = tested on: HCT-116 colon
LOX IMVI melanoma = tested on: LOX IMVI melanoma
BT-549 breast = tested on: BT-549 breast
NCI-H322M lung = tested on: NCI-H322M lung
SNB-75 CNS = tested on: SNB-75 CNS
UACC-257 melanoma = tested on: UACC-257 melanoma
M14 melanoma = tested on: M14 melanoma
MDA-MB-468 breast = tested on: MDA-MB-468 breast
NCI-H460 NSCLC = tested on: NCI-H460 NSCLC
HL-60(TB) leukemia = tested on: HL-60(TB) leukemia
NCI-H226 lung = tested on: NCI-H226 lung
KM12 colon = tested on: KM12 colon
OVCAR-3 ovarian = tested on: OVCAR-3 ovarian
DU-145 prostate = tested on: DU-145 prostate
HT29 colon = tested on: HT29 colon
HCT-15 colon = tested on: HCT-15 colon
RXF 393 renal = tested on: RXF 393 renal
EKVX NSCLC = tested on: EKVX NSCLC
SK-MEL-5 melanoma = tested on: SK-MEL-5 melanoma
CAKI-1 renal = tested on: CAKI-1 renal
MALME-3M melanoma = tested on: MALME-3M melanoma
NCI-H23 lung = tested on: NCI-H23 lung
SK-MEL-28 melanoma = tested on: SK-MEL-28 melanoma
U251 glioblastoma = tested on: U251 glioblastoma
A549 NSCLC = tested on: A549 NSCLC
SR leukemia = tested on: SR leukemia
UACC-62 melanoma = tested on: UACC-62 melanoma
OVCAR-8 ovarian = tested on: OVCAR-8 ovarian
SNB-19 CNS = tested on: SNB-19 CNS
COLO 205 colon = tested on: COLO 205 colon
SN12C renal = tested on: SN12C renal
MDA-MB-231 breast = tested on: MDA-MB-231 breast
NCI-H522 lung = tested on: NCI-H522 lung

CCn1c(-c2nonc2N)nc2c(C#CC(C)(C)O)ncc(OC[C@H]3CCCNC3)c21
GI50 (SF-268 CNS): 6.19 µM
TGI (SF-268 CNS): 20.2 µM
GI50 (MCF7 breast): 0.0267 µM
TGI (MCF7 breast): 16.6 µM
GI50 (PC-3 prostate): 0.0846 µM
TGI (PC-3 prostate): 14.2 µM
GI50 (ACHN renal): < 0.01 µM
TGI (ACHN renal): 0.129 µM
GI50 (HCC-2998 colon): < 0.01 µM
TGI (HCC-2998 colon): 0.0209 µM
GI50 (MOLT-4 leukemia): < 0.01 µM
TGI (MOLT-4 leukemia): < 0.01 µM
GI50 (A498 renal): < 0.01 µM
TGI (A498 renal): < 0.01 µM
GI50 (RPMI-8226 leukemia): < 0.01 µM
TGI (RPMI-8226 leukemia): 0.283 µM
GI50 (SK-OV-3 ovarian): 0.0422 µM
TGI (SK-OV-3 ovarian): 12.7 µM
GI50 (HS 578T breast): < 0.01 µM
TGI (HS 578T breast): 14.2 µM
GI50 (HOP-92 NSCLC): < 0.01 µM
TGI (HOP-92 NSCLC): 21.7 µM
GI50 (HCT-116 colon): 1.47 µM
TGI (HCT-116 colon): 17.7 µM
GI50 (LOX IMVI melanoma): 1.05 µM
TGI (LOX IMVI melanoma): 8.42 µM
GI50 (BT-549 breast): < 0.01 µM
TGI (BT-549 breast): 2.13 µM
GI50 (NCI-H322M lung): 0.0268 µM
TGI (NCI-H322M lung): 18.4 µM
GI50 (SNB-75 CNS): 0.216 µM
TGI (SNB-75 CNS): 17.1 µM
GI50 (UACC-257 melanoma): 2 µM
TGI (UACC-257 melanoma): 16.7 µM
GI50 (M14 melanoma): < 0.01 µM
TGI (M14 melanoma): < 0.01 µM
GI50 (MDA-MB-468 breast): 0.099 µM
TGI (MDA-MB-468 breast): 19.6 µM
GI50 (NCI-H460 NSCLC): 0.195 µM
TGI (NCI-H460 NSCLC): 11 µM
GI50 (HL-60(TB) leukemia): < 0.01 µM
TGI (HL-60(TB) leukemia): 0.101 µM
GI50 (NCI-H226 lung): 4.62 µM
TGI (NCI-H226 lung): 18.5 µM
GI50 (KM12 colon): 0.018 µM
TGI (KM12 colon): 14.4 µM
GI50 (OVCAR-3 ovarian): 0.198 µM
TGI (OVCAR-3 ovarian): 15.2 µM
GI50 (DU-145 prostate): 0.0938 µM
TGI (DU-145 prostate): 13.8 µM
GI50 (HT29 colon): 0.199 µM
TGI (HT29 colon): 16.5 µM
GI50 (HCT-15 colon): 0.984 µM
TGI (HCT-15 colon): 64.2 µM
GI50 (RXF 393 renal): < 0.01 µM
TGI (RXF 393 renal): 19.2 µM
GI50 (EKVX NSCLC): 4.79 µM
TGI (EKVX NSCLC): 26.5 µM
GI50 (SK-MEL-5 melanoma): < 0.01 µM
TGI (SK-MEL-5 melanoma): 0.19 µM
GI50 (CAKI-1 renal): 0.411 µM
TGI (CAKI-1 renal): 16.7 µM
GI50 (MALME-3M melanoma): 0.183 µM
TGI (MALME-3M melanoma): 17.6 µM
GI50 (NCI-H23 lung): < 0.01 µM
TGI (NCI-H23 lung): 13.6 µM
GI50 (SK-MEL-28 melanoma): 4.69 µM
TGI (SK-MEL-28 melanoma): 20.4 µM
GI50 (U251 glioblastoma): 1.08 µM
TGI (U251 glioblastoma): 14.4 µM
GI50 (A549 NSCLC): 4.15 µM
TGI (A549 NSCLC): 22.7 µM
GI50 (SR leukemia): < 0.01 µM
TGI (SR leukemia): < 0.01 µM
GI50 (UACC-62 melanoma): 0.22 µM
TGI (UACC-62 melanoma): 16.8 µM
GI50 (OVCAR-8 ovarian): < 0.01 µM
TGI (OVCAR-8 ovarian): 17.6 µM
GI50 (SNB-19 CNS): 0.495 µM
TGI (SNB-19 CNS): 15.2 µM
GI50 (COLO 205 colon): 0.116 µM
TGI (COLO 205 colon): 12.1 µM
GI50 (SN12C renal): 0.0908 µM
TGI (SN12C renal): 12.4 µM
GI50 (MDA-MB-231 breast): 2.62 µM
TGI (MDA-MB-231 breast): 16.7 µM
GI50 (NCI-H522 lung): 1.25 µM
TGI (NCI-H522 lung): 4.73 µM
